Experimental data taken from patent US12187773B2, “Modified GIP peptide analogues” (Antag Therapeutics ApS, priority 2018, dated 2025).
*1 amine or outer side, *2 acyl side, *3 side chain or, on linkers, in order; H or OH if unused. Where a SMILES comes first, the peptide text is derived from it. Side-chain parts run from the residue outwards. [ ]: non-standard residue; d: D form. The star is where a group is joined. C16 diacid = O=C(O)CCCCCCCCCCCCCCC(=O)*; γGlu = O=C(O)[C@H](CCC(=O)[*:2])N[*:1]; pGlu = O=C1CC[C@@H](C(=O)O)N1; AEEA = NCCOCCOCC(=O)O

Assays:
Format in all cases: cell-based
[1] = target: T1, human GIP receptor (Homo sapiens, UniProt P48546); experiment: cAMP agonism (CisBio cAMP Dynamic 2 HTRF assay); conditions: HEK293, read-out: cAMP agonism, % Efficacy, Table 1C, HEK-293 cells
T1 sequence (P48546 22-466): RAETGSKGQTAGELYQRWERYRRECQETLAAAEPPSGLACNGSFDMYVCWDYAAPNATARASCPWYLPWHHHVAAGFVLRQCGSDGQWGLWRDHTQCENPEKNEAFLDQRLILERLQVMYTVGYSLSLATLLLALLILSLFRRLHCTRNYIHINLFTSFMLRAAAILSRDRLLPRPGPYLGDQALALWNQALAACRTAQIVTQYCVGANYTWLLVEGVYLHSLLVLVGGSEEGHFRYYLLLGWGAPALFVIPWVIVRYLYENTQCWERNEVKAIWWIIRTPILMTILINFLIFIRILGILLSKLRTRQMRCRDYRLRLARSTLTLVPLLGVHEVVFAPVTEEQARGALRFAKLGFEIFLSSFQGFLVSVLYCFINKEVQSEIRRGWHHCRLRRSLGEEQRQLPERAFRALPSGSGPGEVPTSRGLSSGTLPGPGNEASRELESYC
Description: To test for agonistic properties at the GIP receptor, compounds were diluted and added to cells as described above and incubated for 30 min at 37° C. The resulting increase in intracellular cAMP was determined using the CisBio cAMP Dynamic 2 HTRF Assay Kit as described above.

[2] = target: T1, human GIP receptor; experiment: cAMP accumulation, agonism (DiscoveRx HitHunter cAMP XS assay); parameters: host or cells: COS-7 (transient, calcium phosphate; pCMV-Script vector); conditions: for cAMP agonism, Emax: Table 1B, DiscoveRx, COS-7 cells
In short: (§1)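 cAMP accumulation measured by HitHunter cAMP XS in COS-7 cells transiently expressing human GIP receptor, after 30 min in HBS with 1 mM IBMX at 37 °C. Antagonists preincubated 10 min before GIP giving 50-80% of maximum, then 20 min more; agonist mode used 30 min ligand exposure.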

[3] = target: T1, human GIP receptor; experiment: cAMP accumulation, antagonism (DiscoveRx HitHunter cAMP XS assay); parameters: host or cells: COS-7 (transient, calcium phosphate; pCMV-Script vector); conditions: for cAMP antagonism, % inhib: COS-7 cells, % inhibition of Emax
In short: as §1

[4] = target: T1, human GIP receptor; experiment: cAMP antagonism (CisBio cAMP Dynamic 2 HTRF assay); parameters: pCMV-Script vector; conditions: Table 1C, CisBio, HEK-293 cells; for IC50: cAMP antagonism, nM (IC50), agonist GIP1-42 at EC50
In short: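 Four-parameter fits of cAMP dose-response gave pIC50. cAMP fall was quantified by HTRF competition, ratio 665/620 nm after 60 min at room temperature, against a cAMP standard curve.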

[5] = cAMP antagonism, nM (IC50), Table 1B, DiscoveRx, transiently transfected COS-7 cells

CC[C@H](C)[C@H](NC(=O)[C@H](CO)NC(=O)[C@H](Cc1ccc(O)cc1)NC(=O)[C@H](CC(=O)O)NC(=O)[C@H](CO)NC(=O)[C@@H](NC(=O)[C@H](Cc1ccccc1)NC(=O)[C@@H](NC(=O)CNC(=O)[C@@H](N)CCC(=O)O)[C@@H](C)O)[C@@H](C)CC)C(=O)N[C@@H](C)C(=O)N[C@@H](CCSC)C(=O)N[C@@H](CC(=O)O)C(=O)N[C@@H](CCCNC(=N)N)C(=O)N[C@H](C(=O)N[C@@H](CCCCNC(=O)COCCOCCNC(=O)CC[C@H](NC(=O)CCCCCCCCCCCCCCC(=O)O)C(=O)O)C(=O)N[C@@H](CCC(N)=O)C(=O)N[C@@H](CCC(N)=O)C(=O)N[C@@H](CC(=O)O)C(=O)N[C@@H](Cc1ccccc1)C(=O)N[C@H](C(=O)N[C@@H](CC(N)=O)C(=O)N[C@@H](Cc1c[nH]c2ccccc12)C(=O)N[C@@H](CC(C)C)C(=O)N[C@@H](CC(C)C)C(=O)N[C@@H](C)C(=O)N[C@@H](CCC(N)=O)C(=O)N[C@@H](CCCNC(=N)N)C(N)=O)C(C)C)[C@@H](C)CC [AT373] (HELM PEPTIDE1{E.G.T.F.I.S.D.Y.S.I.A.M.D.R.I.K.Q.Q.D.F.V.N.W.L.L.A.Q.R.[am]}|PEPTIDE2{[O=C(O)CCCCCCCCCCCCCCC(=O)[*:2]].[gGlu].[O=C(COCCOCCN[*:1])[*:2]]}$PEPTIDE1,PEPTIDE2,16:R3-3:R2$$$V2.0; N-terminus assumed)
Emax [1]: 0% | cAMP agonism, Emax [2]: No Agonism | IC50 ([3]; IC50-value (GIPR antagonism), Examples 1 and 2, values of Tables 1B and 2): 10 nM | cAMP antagonism, % inhib ([3]; Table 1B, DiscoveRx): 94% | cAMP antagonism, % inhib [4]: 91% | IC50 [4]: 12.6 nM

CC[C@H](C)[C@H](NC(=O)[C@H](CO)NC(=O)[C@H](Cc1ccc(O)cc1)NC(=O)[C@H](CC(=O)O)NC(=O)[C@H](CO)NC(=O)[C@@H](NC(=O)[C@H](Cc1ccccc1)NC(=O)[C@@H](NC(=O)CNC(=O)[C@@H](N)CCC(=O)O)[C@@H](C)O)[C@@H](C)CC)C(=O)N[C@@H](C)C(=O)N[C@@H](CCSC)C(=O)N[C@@H](CC(=O)O)C(=O)N[C@@H](CCCNC(=N)N)C(=O)N[C@H](C(=O)N[C@@H](CCCCNC(=O)COCCOCCNC(=O)COCCOCCNC(=O)COCCOCCNC(=O)CC[C@H](NC(=O)CCCCCCCCCCCCCCC(=O)O)C(=O)O)C(=O)N[C@@H](CCC(N)=O)C(=O)N[C@@H](CCC(N)=O)C(=O)N[C@@H](CC(=O)O)C(=O)N[C@@H](Cc1ccccc1)C(=O)N[C@H](C(=O)N[C@@H](CC(N)=O)C(=O)N[C@@H](Cc1c[nH]c2ccccc12)C(=O)N[C@@H](CC(C)C)C(=O)N[C@@H](CC(C)C)C(=O)N[C@@H](C)C(=O)N[C@@H](CCC(N)=O)C(=O)N[C@@H](CCCNC(=N)N)C(N)=O)C(C)C)[C@@H](C)CC [AT375] (H-EGTFISDYSIAMDRIK([AEEA-AEEA-AEEA-γGlu-C16 diacid])QQDFVNWLLAQR-NH2; N-terminus assumed)
Emax [1]: 6% | cAMP agonism, Emax [2]: No Agonism | cAMP antagonism, % inhib ([3]; Table 1B, DiscoveRx): 100% | cAMP antagonism, % inhib [4]: 83% | IC50 [4]: 23.3 nM

CC[C@H](C)[C@H](NC(=O)[C@H](CO)NC(=O)[C@H](Cc1ccc(O)cc1)NC(=O)[C@H](CC(=O)O)NC(=O)[C@H](CO)NC(=O)[C@@H](NC(=O)[C@H](Cc1ccccc1)NC(=O)[C@@H](NC(=O)CNC(=O)[C@@H]1CCC(=O)N1)[C@@H](C)O)[C@@H](C)CC)C(=O)N[C@@H](C)C(=O)N[C@@H](CCSC)C(=O)N[C@@H](CC(=O)O)C(=O)N[C@@H](CCCNC(=N)N)C(=O)N[C@H](C(=O)N[C@@H](CCCCNC(=O)CCCCCCCCCCCCCCC(=O)O)C(=O)N[C@@H](CCC(N)=O)C(=O)N[C@@H](CCC(N)=O)C(=O)N[C@@H](CC(=O)O)C(=O)N[C@@H](Cc1ccccc1)C(=O)N[C@H](C(=O)N[C@@H](CC(N)=O)C(=O)N[C@@H](Cc1c[nH]c2ccccc12)C(=O)N[C@@H](CC(C)C)C(=O)N[C@@H](CC(C)C)C(=O)N[C@@H](C)C(=O)N[C@@H](CCC(N)=O)C(=O)N[C@@H](CCCNC(=N)N)C(N)=O)C(C)C)[C@@H](C)CC [AT390] ([pGlu]GTFISDYSIAMDRIK(C16 diacid)QQDFVNWLLAQR-NH2)
Emax [1]: 4% | cAMP agonism, Emax [2]: No Agonism | cAMP antagonism, % inhib ([3]; Table 1B, DiscoveRx): 100% | IC50 [3, 5]: 1 nM | cAMP antagonism, % inhib [4]: 81% | IC50 [4]: 15.9 nM

CC[C@H](C)[C@H](NC(=O)[C@H](CO)NC(=O)[C@H](Cc1ccc(O)cc1)NC(=O)[C@H](CC(=O)O)NC(=O)[C@H](CO)NC(=O)[C@@H](NC(=O)[C@H](Cc1ccccc1)NC(=O)[C@@H](NC(=O)CNC(=O)[C@@H]1CCCN1)[C@@H](C)O)[C@@H](C)CC)C(=O)N[C@@H](C)C(=O)N[C@@H](CCSC)C(=O)N[C@@H](CC(=O)O)C(=O)N[C@@H](CCCNC(=N)N)C(=O)N[C@H](C(=O)N[C@@H](CCCCNC(=O)CCCCCCCCCCCCCCC(=O)O)C(=O)N[C@@H](CCC(N)=O)C(=O)N[C@@H](CCC(N)=O)C(=O)N[C@@H](CC(=O)O)C(=O)N[C@@H](Cc1ccccc1)C(=O)N[C@H](C(=O)N[C@@H](CC(N)=O)C(=O)N[C@@H](Cc1c[nH]c2ccccc12)C(=O)N[C@@H](CC(C)C)C(=O)N[C@@H](CC(C)C)C(=O)N[C@@H](C)C(=O)N[C@@H](CCC(N)=O)C(=O)N[C@@H](CCCNC(=N)N)C(N)=O)C(C)C)[C@@H](C)CC [AT500] (H-PGTFISDYSIAMDRIK(C16 diacid)QQDFVNWLLAQR-NH2; N-terminus assumed)
Emax [1]: 4% | cAMP agonism, Emax [2]: No Agonism | cAMP antagonism, % inhib ([3]; Table 1B, DiscoveRx): 90% | cAMP antagonism, % inhib [4]: 77% | IC50 [4]: 66.8 nM

CC[C@H](C)[C@H](NC(=O)[C@H](CO)NC(=O)[C@H](Cc1ccc(O)cc1)NC(=O)[C@H](CC(=O)O)NC(=O)[C@H](CO)NC(=O)[C@@H](NC(=O)[C@H](Cc1ccccc1)NC(=O)[C@@H](NC(=O)CNC(=O)[C@@H](N)CO)[C@@H](C)O)[C@@H](C)CC)C(=O)N[C@@H](C)C(=O)N[C@@H](CCSC)C(=O)N[C@@H](CC(=O)O)C(=O)N[C@@H](CCCNC(=N)N)C(=O)N[C@H](C(=O)N[C@@H](CCCCNC(=O)CC[C@H](NC(=O)CCCCCCCCCCCCCCC(=O)O)C(=O)O)C(=O)N[C@@H](CCC(N)=O)C(=O)N[C@@H](CCC(N)=O)C(=O)N[C@@H](CC(=O)O)C(=O)N[C@@H](Cc1ccccc1)C(=O)N[C@H](C(=O)N[C@@H](CC(N)=O)C(=O)N[C@@H](Cc1c[nH]c2ccccc12)C(=O)N[C@@H](CC(C)C)C(=O)N[C@@H](CC(C)C)C(=O)N[C@@H](C)C(=O)N[C@@H](CCC(N)=O)C(=O)N[C@@H](CCCNC(=N)N)C(N)=O)C(C)C)[C@@H](C)CC [AT504] (HELM PEPTIDE1{S.G.T.F.I.S.D.Y.S.I.A.M.D.R.I.K.Q.Q.D.F.V.N.W.L.L.A.Q.R.[am]}|PEPTIDE2{[O=C(O)CCCCCCCCCCCCCCC(=O)[*:2]].[gGlu]}$PEPTIDE1,PEPTIDE2,16:R3-2:R2$$$V2.0; N-terminus assumed)
Emax [1]: 0% | cAMP agonism, Emax [2]: No Agonism | cAMP antagonism, % inhib ([3]; Table 1B, DiscoveRx): 90% | IC50 [3, 5]: 21 nM | cAMP antagonism, % inhib [4]: 85% | IC50 [4]: 39.8 nM

CC[C@H](C)[C@H](NC(=O)[C@H](CO)NC(=O)[C@H](Cc1ccc(O)cc1)NC(=O)[C@H](CC(=O)O)NC(=O)[C@H](CO)NC(=O)[C@@H](NC(=O)[C@H](Cc1ccccc1)NC(=O)[C@@H](NC(=O)CNC(=O)[C@@H]1CCCN1)[C@@H](C)O)[C@@H](C)CC)C(=O)N[C@@H](C)C(=O)N[C@@H](CCSC)C(=O)N[C@@H](CC(=O)O)C(=O)N[C@@H](CCCNC(=N)N)C(=O)N[C@H](C(=O)N[C@@H](CCCCNC(=O)COCCOCCNC(=O)COCCOCCNC(=O)CC[C@H](NC(=O)CCCCCCCCCCCCCCC(=O)O)C(=O)O)C(=O)N[C@@H](CCC(N)=O)C(=O)N[C@@H](CCC(N)=O)C(=O)N[C@@H](CC(=O)O)C(=O)N[C@@H](Cc1ccccc1)C(=O)N[C@H](C(=O)N[C@@H](CC(N)=O)C(=O)N[C@@H](Cc1c[nH]c2ccccc12)C(=O)N[C@@H](CC(C)C)C(=O)N[C@@H](CC(C)C)C(=O)N[C@@H](C)C(=O)N[C@@H](CCC(N)=O)C(=O)N[C@@H](CCCNC(=N)N)C(N)=O)C(C)C)[C@@H](C)CC [AT518] (H-PGTFISDYSIAMDRIK([AEEA-AEEA-γGlu-C16 diacid])QQDFVNWLLAQR-NH2; N-terminus assumed)
Emax [1]: 0% | Emax ([2]; COS-7, read-out: cAMP agonism, Emax): 5% | cAMP antagonism, % inhib ([3]; Table 1B, DiscoveRx): 100% | cAMP antagonism, % inhib [4]: 71% | IC50 [4]: 85.8 nM
